One assay concerns the target T1, Or1a/Orco (Drosophila melanogaster, UniProt Q9VNB5+Q9W5G6).
T1 construct: expressed in transfected cells; host or cells: Xenopus laevis oocytes injected with in vitro transcribed mRNA (pGEM-HE)
T1 sequence (Q9W5G6 1-392): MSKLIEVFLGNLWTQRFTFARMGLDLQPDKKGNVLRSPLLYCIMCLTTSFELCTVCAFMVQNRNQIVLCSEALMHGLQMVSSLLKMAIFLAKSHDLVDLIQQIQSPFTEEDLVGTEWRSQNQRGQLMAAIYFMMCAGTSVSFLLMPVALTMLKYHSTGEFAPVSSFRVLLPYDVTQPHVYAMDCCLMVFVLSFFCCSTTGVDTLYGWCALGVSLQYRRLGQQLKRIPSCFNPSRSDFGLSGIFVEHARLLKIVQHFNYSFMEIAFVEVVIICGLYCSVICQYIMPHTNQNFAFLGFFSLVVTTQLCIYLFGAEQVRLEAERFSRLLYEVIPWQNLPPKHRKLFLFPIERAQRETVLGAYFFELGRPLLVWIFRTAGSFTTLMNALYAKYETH
T1 sequence (Q9VNB5 1-486): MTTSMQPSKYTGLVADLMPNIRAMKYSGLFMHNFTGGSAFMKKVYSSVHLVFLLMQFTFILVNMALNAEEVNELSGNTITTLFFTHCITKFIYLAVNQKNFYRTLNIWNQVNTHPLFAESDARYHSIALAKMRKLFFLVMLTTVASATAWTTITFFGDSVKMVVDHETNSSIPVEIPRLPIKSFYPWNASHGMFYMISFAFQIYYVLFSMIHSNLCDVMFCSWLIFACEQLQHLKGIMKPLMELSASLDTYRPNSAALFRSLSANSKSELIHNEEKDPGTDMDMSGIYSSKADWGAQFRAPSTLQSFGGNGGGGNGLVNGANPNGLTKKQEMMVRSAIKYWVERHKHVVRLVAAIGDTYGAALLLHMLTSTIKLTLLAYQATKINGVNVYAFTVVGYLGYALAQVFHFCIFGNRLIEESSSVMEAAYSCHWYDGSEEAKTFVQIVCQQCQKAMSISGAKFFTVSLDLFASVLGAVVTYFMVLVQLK
The experiment in a line: Two-electrode voltage-clamp in Xenopus laevis oocytes expressing Or1a/Orco. The assay is classed as cell-based, D. melanogaster. To be noted: TEVC; for odorant-evoked inward current (activation): −80 mV, octanol 30 μM, PA 10 μM (Figure 2A). How it is done:
(§1) The D. melanogaster Or subunits (Or1a, Or24a, and Or35a) (FlyBase IDs: FBgn0029521, FBgn0026394, and FBgn0028946) and the odorant receptor co-receptor Orco (FlyBase ID: FBgn0037324) were synthesized as complementary DNA by Cosmogenetech (Seoul, Republic of Korea). The synthesized cDNA constructs were subcloned into the pGEM-HE expression vector. Plasmid transformation was performed using Escherichia coli DH5α competent cells, and recombinant plasmids were isolated using a miniprep protocol. The integrity of the cloned sequences was confirmed by Sanger sequencing. For complementary RNA synthesis, D. melanogaster Or1a, Or24a, Or35a, and Orco cDNA were linearized with appropriate restriction endonucleases, and digestion efficiency was verified via agarose gel electrophoresis. In vitro transcription was carried out using T7 RNA polymerase (mMESSAGE mMACHINE T7 Transcription Kit; Thermo Fisher Scientific, Waltham, MA, USA). The resulting mRNA was precipitated, resuspended in DEPC-treated water, and stored at −80 °C for subsequent experiments.
(§2) Xenopus laevis frogs were obtained from the Korean Xenopus Resource Center for Research (KXRCR000001, Gangwon, Republic of Korea). The isolation and maintenance of Xenopus oocytes followed the standardized protocols described by Pyeon et al. and complied with the ethical guidelines of Chonnam National University (CNU IACUC-YB-2016-07, July 2016). Microinjection of 50 ng of mRNA per oocyte was performed using a nanoliter injector (Drummond Scientific, Vernon Hills, IL, USA). Following injection, the oocytes were incubated at 18 °C in a shaking incubator to facilitate optimal protein expression before electrophysiological recordings.
(§3) The two-electrode voltage-clamp (TEVC) experiments were conducted following established protocols as described in Lee et al.. […]
(§4) All values are presented as the mean ± S.E.M. (standard error of the mean) following data analysis. Data collected using the two-electrode voltage-clamp technique were analyzed with SigmaPlot 10.0 software. […]

Another assay has as its target T2, Or24a/Orco (Drosophila melanogaster, UniProt P81913+Q9VNB5).
T2 construct: expressed in transfected cells; host or cells: Xenopus laevis oocytes injected with in vitro transcribed mRNA (pGEM-HE)
T2 sequence (P81913 1-398): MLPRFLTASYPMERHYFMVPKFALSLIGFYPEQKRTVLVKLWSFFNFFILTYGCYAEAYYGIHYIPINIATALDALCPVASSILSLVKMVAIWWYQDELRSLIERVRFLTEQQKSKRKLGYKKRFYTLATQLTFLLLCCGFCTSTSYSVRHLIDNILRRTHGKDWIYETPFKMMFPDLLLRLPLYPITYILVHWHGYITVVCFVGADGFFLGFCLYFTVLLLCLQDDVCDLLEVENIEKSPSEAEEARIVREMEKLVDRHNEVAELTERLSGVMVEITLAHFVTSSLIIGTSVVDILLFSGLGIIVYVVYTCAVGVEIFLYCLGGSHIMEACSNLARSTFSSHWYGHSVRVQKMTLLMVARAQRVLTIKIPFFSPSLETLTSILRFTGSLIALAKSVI
T2 sequence (Q9VNB5 1-486): T1 sequence (Q9VNB5 1-486)
The assay can be described thus: Two-electrode voltage-clamp in Xenopus laevis oocytes expressing Or24a/Orco. In kind it is cell-based, D. melanogaster. To be noted: TEVC; for odorant-evoked inward current (activation): −80 mV, octanol 10 μM, PA 10 μM (Figure 2B). The procedure: as §1, §2, §3, §4

In another assay the target is T3, Or35a/Orco (Drosophila melanogaster, UniProt Q9V3Q2+Q9VNB5).
T3 construct: expressed in transfected cells; host or cells: Xenopus laevis oocytes injected with in vitro transcribed mRNA (pGEM-HE)
T3 sequence (Q9V3Q2 1-409): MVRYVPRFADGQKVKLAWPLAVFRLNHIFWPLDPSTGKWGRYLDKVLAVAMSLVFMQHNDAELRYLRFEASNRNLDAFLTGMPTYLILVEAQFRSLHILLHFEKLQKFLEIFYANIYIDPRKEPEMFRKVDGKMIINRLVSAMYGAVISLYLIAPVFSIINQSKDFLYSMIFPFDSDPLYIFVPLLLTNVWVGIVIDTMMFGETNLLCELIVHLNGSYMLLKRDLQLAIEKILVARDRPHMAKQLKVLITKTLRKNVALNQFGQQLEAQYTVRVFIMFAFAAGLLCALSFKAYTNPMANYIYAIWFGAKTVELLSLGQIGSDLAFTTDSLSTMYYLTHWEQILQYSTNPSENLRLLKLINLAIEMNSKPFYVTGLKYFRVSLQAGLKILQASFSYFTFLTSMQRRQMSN
T3 sequence (Q9VNB5 1-486): T1 sequence (Q9VNB5 1-486)
The experiment in a line: Two-electrode voltage-clamp in Xenopus laevis oocytes expressing Or35a/Orco. The assay is classed as cell-based, D. melanogaster. Particulars: TEVC; for odorant-evoked inward current (activation): −80 mV, octanol 10 μM, PA 10 μM (Figure 2C). The procedure: as §1, §2, §3, §4

The target in a further assay is T4, Orco homomers (Drosophila melanogaster, UniProt Q9VNB5).
T4 construct: expressed in transfected cells; host or cells: Xenopus laevis oocytes injected with Orco mRNA
T4 sequence (Q9VNB5 1-486): T1 sequence (Q9VNB5 1-486)
The experiment in a line: Two-electrode voltage-clamp in Xenopus laevis oocytes expressing Orco homomers. The assay is classed as cell-based. To be noted: for odorant-evoked inward current (activation): Orco alone, −80 mV, octanol 10 μM, PA 10 μM (Figure 2D). The procedure: as §1, §2
(§5) The two-electrode voltage-clamp (TEVC) experiments were conducted following established protocols as described in Lee et al.. This methodology ensures the accurate measurement of odorant receptor activation and has been widely used in previous studies on insect olfactory receptors. The molecular interaction between the odorant receptor (Or) and its ligand was examined using Or-expressing oocytes. Electrophysiological recordings were conducted with a two-electrode voltage-clamp system (OC-725C; Warner Instruments, Hamden, CT, USA) and digitized using a Digidata acquisition system (1322A; Molecular Devices, Sunnyvale, CA, USA). The oocyte membrane potential was clamped at −80 mV. Stock solutions of each compound were prepared by dissolving them in ND96 buffer (58.44 mM NaCl, 2 mM KCl, 1 mM MgCl2, 1.8 mM CaCl2, 5 mM HEPES, pH of 7.4) at the appropriate concentrations before use. […]
as §4

The next assay concerns the target W146A Orco (Drosophila melanogaster, UniProt Q9VNB5, W150A). The assay can be described thus: Two-electrode voltage-clamp, W146A mutant Orco. In kind it is cell-based, D. melanogaster. How it is done: as §2, §3
(§6) To validate the potential binding sites predicted by 3D protein–ligand docking simulations, molecular characterization was conducted through site-directed mutagenesis. […] The effect of these mutations on PA-binding affinity was evaluated through two-electrode voltage-clamp recordings.
as §4

For another assay, the target named is E153A Orco (Drosophila melanogaster, UniProt Q9VNB5). The assay can be described thus: Two-electrode voltage-clamp, E153A mutant Orco. The assay is classed as cell-based, D. melanogaster. Particulars: TEVC. The procedure: as §2, §3, §6, §4
Assay [1] deals with double mutation (W146A + E153A) Orco. The assay can be described thus: Two-electrode voltage-clamp, double-mutant Orco. The assay is classed as cell-based, D. melanogaster. Particulars: TEVC (Figure 5). How it is done: as §2, §3, §6, §4
The test system of the next assay is uninjected oocytes. The experiment in a line: Two-electrode voltage-clamp control on uninjected oocytes. The assay is classed as cell-based, Xenopus laevis. To be noted: control experiment, TEVC. The procedure: as §2
as §5, with “mV.” for “mV. Stock solutions of each compound were prepared by dissolving them in ND96 buffer (58.44 mM NaCl, 2 mM KCl, 1 mM MgCl2, 1.8 mM CaCl2, 5 mM HEPES, pH of 7.4) at the appropriate concentrations before use.”

Assay [2] relates to Or1a, Or24a, and Or35a co-expressed with mutant Orco. The experiment in a line: Two-electrode voltage-clamp, Or1a, Or24a, Or35a co-expressed with mutant Orco. The assay is classed as cell-based, D. melanogaster. To be noted: TEVC, 10 µM octanol, mutant Orco co-expressed with Ors. How it is done: as §2
The two-electrode voltage-clamp (TEVC) experiments were conducted following established protocols as described in Lee et al.. This methodology ensures the accurate measurement of odorant receptor activation and has been widely used in previous studies on insect olfactory receptors. The molecular interaction between the odorant receptor (Or) and its ligand was examined using Or-expressing oocytes. […]
as §6

The mark [3] stands for this setting: Xenopus oocytes, holding potential −80 mV, mean ± SEM, read-out: half-maximal effective concentration (EC50).

W146A Orco, sequence (Q9VNB5 whole entry W150A): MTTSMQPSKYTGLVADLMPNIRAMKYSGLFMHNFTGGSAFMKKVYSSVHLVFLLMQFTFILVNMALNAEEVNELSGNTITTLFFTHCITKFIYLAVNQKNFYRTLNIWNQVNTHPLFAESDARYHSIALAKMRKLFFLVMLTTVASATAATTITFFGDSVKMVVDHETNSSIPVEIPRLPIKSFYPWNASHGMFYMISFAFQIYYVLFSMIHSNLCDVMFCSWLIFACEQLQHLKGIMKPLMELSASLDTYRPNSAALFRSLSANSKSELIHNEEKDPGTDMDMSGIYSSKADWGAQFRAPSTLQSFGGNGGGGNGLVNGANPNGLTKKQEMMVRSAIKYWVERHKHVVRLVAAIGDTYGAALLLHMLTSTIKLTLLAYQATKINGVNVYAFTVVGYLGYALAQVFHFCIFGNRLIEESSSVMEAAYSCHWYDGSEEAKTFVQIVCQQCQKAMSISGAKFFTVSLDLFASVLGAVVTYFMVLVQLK

Regarding `CC(=O)OCCc1ccccc1` [PA, phenethyl acetate], the EC50 on Or1a/Orco (setting [3]) is 2.1 ± 1.2 µM; on Or24a/Orco (setting [3]), 2.8 ± 0.2 µM; at Or35a/Orco (setting [3]), 5.9 ± 1.1 µM; at Orco homomers (wild-type Orco homomers, TEVC, Xenopus oocytes, holding potential −80 mV, mean ± SEM, read-out: half-maximal effective concentration (EC50)) it was 0.4 ± 0.2 µM; on W146A Orco, 17.9 ± 2.1 µM; at E153A Orco (E153A Orco homomers, Xenopus oocytes, −80 mV) it was 12.8 ± 1.9 µM. Also, the “odorant-evoked inward current (activation)” value on Or1a/Orco, at Or24a/Orco, on Or35a/Orco and on Orco homomers (TEVC) was “induced inward currents” throughout. On Orco homomers (voltage ramps, PA 0.3 µM and 3 µM, Orco homomeric receptor (Figure 3D)), the “voltage dependence of activation (current–voltage relationship)” value is on record as “voltage-independent activation”. The “PA-induced currents versus wild type” value at W146A Orco (single mutation W146A, TEVC, 10 µM PA (Figure 5)) is listed as “significantly reduced”; on E153A Orco (single mutation E153A, 10 µM PA (Figure 5)), “significantly reduced”. In addition, in assay [1], the “PA activation versus wild type” value is given as “nearly abolished”. Further, the “effect on uninjected oocytes” value with uninjected oocytes was “no effect”.
Regarding `CCCCCCCCO` [octanol, reference compound], the “odorant-evoked inward current (activation)” value on Or1a/Orco is recorded as “induced robust inward currents”; at Or24a/Orco, “induced robust inward currents”; on Or35a/Orco it was “induced robust inward currents”; on Orco homomers (TEVC) it was “failed to activate”. The “activation by octanol with mutant Orco” value in assay [2] is reported as “remained consistent”.

For the origin of these results see PMC12155335, “Phenethyl Acetate as an Agonist of Insect Odorant Receptor Co-Receptor (Orco): Molecular Mechanisms and Functional Insights” (International Journal of Molecular Sciences, 2025).
